Data: PMC8694024 (RSC Advances, 2021)
Like-named read-outs stand apart in the source and are kept apart here.

Tests used:
[1] = target: T1, β-glucosidase from Aspergillus niger (Aspergillus niger, UniProt A2RAL4); assay: Inhibition of β-glucosidase from Aspergillus niger, β-p-NPG substrate; assay type: biochemical; details: read-out: Apparent IC50, A. niger β-glucosidase; pH 4.6, β-p-NPG substrate
T1 sequence (A2RAL4 20-860): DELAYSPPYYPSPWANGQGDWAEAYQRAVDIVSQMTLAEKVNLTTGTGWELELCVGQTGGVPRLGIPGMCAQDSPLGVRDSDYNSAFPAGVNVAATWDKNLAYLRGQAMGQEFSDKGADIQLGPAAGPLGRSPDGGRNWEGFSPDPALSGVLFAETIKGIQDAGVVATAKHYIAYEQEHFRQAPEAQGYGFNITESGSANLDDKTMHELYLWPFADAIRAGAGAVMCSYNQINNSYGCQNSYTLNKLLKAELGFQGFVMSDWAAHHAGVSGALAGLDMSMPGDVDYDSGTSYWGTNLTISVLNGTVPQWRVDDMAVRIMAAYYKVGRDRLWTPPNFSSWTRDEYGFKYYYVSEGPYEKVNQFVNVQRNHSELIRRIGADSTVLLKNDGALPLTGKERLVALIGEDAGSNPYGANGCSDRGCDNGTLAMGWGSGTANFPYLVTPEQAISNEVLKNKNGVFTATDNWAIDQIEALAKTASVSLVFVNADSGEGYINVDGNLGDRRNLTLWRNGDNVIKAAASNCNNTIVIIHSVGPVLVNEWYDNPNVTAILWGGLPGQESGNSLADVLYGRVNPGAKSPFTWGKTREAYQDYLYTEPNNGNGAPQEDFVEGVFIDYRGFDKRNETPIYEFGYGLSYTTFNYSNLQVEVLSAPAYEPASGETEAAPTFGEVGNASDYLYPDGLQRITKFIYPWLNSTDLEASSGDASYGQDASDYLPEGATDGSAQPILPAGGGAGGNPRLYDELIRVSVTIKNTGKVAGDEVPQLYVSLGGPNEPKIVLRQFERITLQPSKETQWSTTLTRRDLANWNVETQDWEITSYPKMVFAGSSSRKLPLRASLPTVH

rat intestinal maltase [2] = assay: Inhibitory effects on rat intestinal α-glucosidases: maltase; assay type: biochemical; details: read-out: Apparent IC50, Maltase; rat intestinal disaccharidases
[3] = target: T2, rat intestinal isomaltase (Rattus norvegicus, UniProt P23739); assay: Inhibitory effects on rat intestinal α-glucosidases: isomaltase; assay type: biochemical
T2 sequence (P23739 whole entry): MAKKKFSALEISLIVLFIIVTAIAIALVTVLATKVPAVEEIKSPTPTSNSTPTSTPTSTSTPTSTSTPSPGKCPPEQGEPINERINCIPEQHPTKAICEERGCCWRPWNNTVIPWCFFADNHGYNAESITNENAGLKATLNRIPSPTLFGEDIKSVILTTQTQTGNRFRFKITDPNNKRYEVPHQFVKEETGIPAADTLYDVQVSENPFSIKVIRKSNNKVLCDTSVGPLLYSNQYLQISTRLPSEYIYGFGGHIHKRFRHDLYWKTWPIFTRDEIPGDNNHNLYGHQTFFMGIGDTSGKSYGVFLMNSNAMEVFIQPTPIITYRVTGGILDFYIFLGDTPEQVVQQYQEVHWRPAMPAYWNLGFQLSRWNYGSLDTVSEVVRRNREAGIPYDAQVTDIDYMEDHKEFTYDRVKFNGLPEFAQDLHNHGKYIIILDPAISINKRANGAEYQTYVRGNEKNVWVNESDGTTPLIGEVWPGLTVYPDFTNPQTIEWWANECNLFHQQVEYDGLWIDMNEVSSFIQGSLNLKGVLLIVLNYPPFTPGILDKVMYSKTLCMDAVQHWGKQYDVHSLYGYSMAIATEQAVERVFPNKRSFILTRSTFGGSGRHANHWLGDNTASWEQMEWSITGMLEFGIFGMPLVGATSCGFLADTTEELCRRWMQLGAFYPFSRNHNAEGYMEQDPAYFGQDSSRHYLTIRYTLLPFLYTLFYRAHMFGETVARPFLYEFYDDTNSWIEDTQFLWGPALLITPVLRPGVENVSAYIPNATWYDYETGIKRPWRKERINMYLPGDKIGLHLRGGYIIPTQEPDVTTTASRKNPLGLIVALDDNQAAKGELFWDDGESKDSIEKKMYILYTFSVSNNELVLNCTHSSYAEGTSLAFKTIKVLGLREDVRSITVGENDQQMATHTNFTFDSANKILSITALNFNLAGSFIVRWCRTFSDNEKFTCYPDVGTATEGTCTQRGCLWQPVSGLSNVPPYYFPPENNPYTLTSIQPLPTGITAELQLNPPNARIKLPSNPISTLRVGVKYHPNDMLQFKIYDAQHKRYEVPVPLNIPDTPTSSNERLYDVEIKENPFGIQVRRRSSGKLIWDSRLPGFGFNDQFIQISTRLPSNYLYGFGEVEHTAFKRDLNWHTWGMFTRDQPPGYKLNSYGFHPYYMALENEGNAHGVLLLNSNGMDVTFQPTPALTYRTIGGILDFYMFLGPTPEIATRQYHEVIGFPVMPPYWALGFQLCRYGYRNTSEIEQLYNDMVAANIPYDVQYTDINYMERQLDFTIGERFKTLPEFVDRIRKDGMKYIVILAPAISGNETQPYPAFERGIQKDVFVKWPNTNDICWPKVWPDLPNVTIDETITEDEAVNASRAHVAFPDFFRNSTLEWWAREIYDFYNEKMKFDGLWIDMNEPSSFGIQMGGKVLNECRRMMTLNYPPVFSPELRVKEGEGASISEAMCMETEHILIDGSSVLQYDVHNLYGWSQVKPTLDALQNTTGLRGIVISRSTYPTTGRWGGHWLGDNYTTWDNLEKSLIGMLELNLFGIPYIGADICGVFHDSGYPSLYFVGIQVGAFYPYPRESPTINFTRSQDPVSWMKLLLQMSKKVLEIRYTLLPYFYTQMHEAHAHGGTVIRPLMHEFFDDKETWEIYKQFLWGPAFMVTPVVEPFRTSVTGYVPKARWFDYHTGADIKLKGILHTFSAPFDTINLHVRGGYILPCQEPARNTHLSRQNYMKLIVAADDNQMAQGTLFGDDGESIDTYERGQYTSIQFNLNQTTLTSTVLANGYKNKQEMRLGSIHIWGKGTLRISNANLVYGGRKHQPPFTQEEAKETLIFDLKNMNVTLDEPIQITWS

[4] = target: recombinant human α-glucosidase GAA (Homo sapiens, UniProt P10253); assay: Inhibition of recombinant human α-glucosidase GAA; assay type: biochemical
[5] = tested on: intestinal α-glucosidases; details: cited from earlier work
rat intestinal maltase [6] = details: read-out: Apparent IC50, Maltase; rat intestinal disaccharidases; cited from earlier work
[7] = target: T2, rat intestinal isomaltase; details: read-out: Apparent IC50, Isomaltase; rat intestinal disaccharidases; cited from earlier work
rat intestinal sucrase = rat intestinal sucrase (Rattus norvegicus, UniProt P23739); assay: Inhibitory effects on rat intestinal α-glucosidases: sucrase; assay type: biochemical
Sequence of rat intestinal sucrase (P23739 whole entry): as above

[8] = read-out: Apparent IC50, Isomaltase, rat intestinal disaccharidases
[9] = read-out: Apparent IC50, Sucrase, rat intestinal disaccharidases

Compound | IC50 [1] [µM] | IC50 (rat intestinal maltase [2]) [µM] | IC50 [3, 8] [µM] | IC50 (rat intestinal sucrase; [9]) [µM] | further results
2'-epi-Neosalacinol [Compound 11] | > 1000 | > 100 | > 100 | – | –
OCC(CO)N[C@H]1C[C@](O)(CO)[C@@H](O)[C@H](O)[C@H]1O [Voglibose] | – | – | – | – | Ki [4]: 7.6 ± 0.8 µM
O=S(=O)([O-])O[C@@H](CO)[C@H](O)C[S@+]1C[C@@H](O)[C@H](O)[C@H]1CO [Compound 1, Salacinol] | – | – | – | – | type of inhibition (Lineweaver–Burk plots) [5]: competitive type of inhibition; IC50 (rat intestinal maltase [6]): 5.2 µM; IC50 [7]: 5.2 µM
3'-epi-Salacinol [Compound 8] | > 1000 | > 100 | 6.4 | 19 | –
3'-epi-Neosalacinol [Compound 9] | > 1000 | 4.3 | 0.58 | 0.69 | –
2', 3'-epi-Salacinol [Compound 12] | > 1000 | > 100 | > 100 | > 100 | –
[O-][C@@H](CO)[C@H](O)C[S@+]1C[C@@H](O)[C@H](O)[C@H]1CO [Compound 2, neosalacinol, reference compound] | – | 25 | – | – | Ki [4]: 3.6 ± 0.3 µM; IC50 [3]: 0.45 µM; IC50 (rat intestinal sucrase): 3.6 µM
2', 3'-epi-Neosalacinol [Compound 13] | > 1000 | > 100 | 34 | – | –
2'-epi-Salacinol [Compound 10] | > 1000 | > 100 | > 100 | > 100 | –
